Reference: ChEMBL document CHEMBL2202954, “The effect of PLC-γ2 inhibitors on the growth of human tumour cells” (2012)

Assays:
Format in all cases: functional
SNB-19 = test: Cytotoxicity against human SNB19 cells assessed as cellular growth at 10 uM by SRB assay
HCC 2998 = test: Cytotoxicity against human HCC2998 cells assessed as cellular growth at 10 uM by SRB assay
M14 = test: Cytotoxicity against human M14 cells assessed as cellular growth at 10 uM by SRB assay
RPMI-8226 = test: Cytotoxicity against human RPMI8226 cells assessed as cellular growth at 10 uM by SRB assay
K562 = test: Cytotoxicity against human K562 cells assessed as cellular growth at 10 uM by SRB assay
HT-29 = test: Cytotoxicity against human HT-29 cells assessed as cellular growth at 10 uM by SRB assay
SF-295 = test: Cytotoxicity against human SF295 cells assessed as cellular growth at 10 uM by SRB assay
SK-MEL-2 = test: Cytotoxicity against human SK-MEL-2 cells assessed as cellular growth at 10 uM by SRB assay
OVCAR-5 = test: Cytotoxicity against human OVCAR5 cells assessed as cellular growth at 10 uM by SRB assay
SR = test: Cytotoxicity against human SR cells assessed as cellular growth at 10 uM by SRB assay
SK-MEL-5 = test: Cytotoxicity against human SK-MEL-5 cells assessed as cellular growth at 10 uM by SRB assay
A498 = test: Cytotoxicity against human A498 cells assessed as cellular growth at 10 uM by SRB assay
A549 = test: Cytotoxicity against human A549 cells assessed as cellular growth at 10 uM by SRB assay
SF-539 = test: Cytotoxicity against human SF539 cells assessed as cellular growth at 10 uM by SRB assay
HCT-15 = test: Cytotoxicity against human HCT15 cells assessed as cellular growth at 10 uM by SRB assay
PC-3 = test: Cytotoxicity against human PC3 cells assessed as cellular growth at 10 uM by SRB assay
KM12 = test: Cytotoxicity against human KM12 cells assessed as cellular growth at 10 uM by SRB assay
HCT-116 = test: Cytotoxicity against human HCT116 cells assessed as cellular growth at 10 uM by SRB assay
HOP-62 = test: Cytotoxicity against human HOP62 cells assessed as cellular growth at 10 uM by SRB assay
SF-268 = test: Cytotoxicity against human SF268 cells assessed as cellular growth at 10 uM by SRB assay
UO-31 = test: Cytotoxicity against human UO31 cells assessed as cellular growth at 10 uM by SRB assay
CCRF-CEM = test: Cytotoxicity against human CCRF-CEM cells assessed as cellular growth at 10 uM by SRB assay
SNB-75 = test: Cytotoxicity against human SNB75 cells assessed as cellular growth at 10 uM by SRB assay
EKVX = test: Cytotoxicity against human EKVX cells assessed as cellular growth at 10 uM by SRB assay
ACHN = test: Cytotoxicity against human ACHN cells assessed as cellular growth at 10 uM by SRB assay
RXF 393 = test: Cytotoxicity against human RXF393 cells assessed as cellular growth at 10 uM by SRB assay
MDA-MB-435 = test: Cytotoxicity against human MDA-MB-435 cells assessed as cellular growth at 10 uM by SRB assay
NCI-H322M = test: Cytotoxicity against human NCI-H322M cells assessed as cellular growth at 10 uM by SRB assay
BT-549 = test: Cytotoxicity against human BT549 cells assessed as cellular growth at 10 uM by SRB assay
SK-OV-3 = test: Cytotoxicity against human SKOV3 cells assessed as cellular growth at 10 uM by SRB assay
SK-MEL-28 = test: Cytotoxicity against human SK-MEL-28 cells assessed as cellular growth at 10 uM by SRB assay
MCF7 = test: Cytotoxicity against human MCF7 cells assessed as cellular growth at 10 uM by SRB assay
OVCAR-3 = test: Cytotoxicity against human OVCAR3 cells assessed as cellular growth at 10 uM by SRB assay
Hs-578T = test: Cytotoxicity against human Hs578T cells assessed as cellular growth at 10 uM by SRB assay
IGROV-1 = test: Cytotoxicity against human IGROV1 cells assessed as cellular growth at 10 uM by SRB assay
786-0 = test: Cytotoxicity against human 786-0 cells assessed as cellular growth at 10 uM by SRB assay
DU-145 = test: Cytotoxicity against human DU145 cells assessed as cellular growth at 10 uM by SRB assay
NCI-H226 = test: Cytotoxicity against human NCI-H226 cells assessed as cellular growth at 10 uM by SRB assay
HL-60(TB) = test: Cytotoxicity against human HL-60(TB) cells assessed as cellular growth at 10 uM by SRB assay
U-251 = test: Cytotoxicity against human U251 cells assessed as cellular growth at 10 uM by SRB assay
MDA-MB-231 = test: Cytotoxicity against human MDA-MB-231 cells assessed as cellular growth at 10 uM by SRB assay
T47D = test: Cytotoxicity against human T47D cells assessed as cellular growth at 10 uM by SRB assay
MOLT-4 = test: Cytotoxicity against human MOLT4 cells assessed as cellular growth at 10 uM by SRB assay
OVCAR-8 = test: Cytotoxicity against human OVCAR8 cells assessed as cellular growth at 10 uM by SRB assay
TK-10 = test: Cytotoxicity against human TK10 cells assessed as cellular growth at 10 uM by SRB assay
COLO 205 = test: Cytotoxicity against human COLO205 cells assessed as cellular growth at 10 uM by SRB assay
NCI-H460 = test: Cytotoxicity against human NCI-H460 cells assessed as cellular growth at 10 uM by SRB assay
UACC-62 = test: Cytotoxicity against human UACC62 cells assessed as cellular growth at 10 uM by SRB assay
UACC-257 = test: Cytotoxicity against human UACC257 cells assessed as cellular growth at 10 uM by SRB assay
[1] = Cytotoxicity against human NCI-ADR-RES cells assessed as cellular growth at 10 uM by SRB assay
NCI-H522 = test: Cytotoxicity against human NCI-H522 cells assessed as cellular growth at 10 uM by SRB assay
LOX IMVI = test: Cytotoxicity against human LOXIMVI cells assessed as cellular growth at 10 uM by SRB assay
SW-620 = test: Cytotoxicity against human SW620 cells assessed as cellular growth at 10 uM by SRB assay
NCI-H23 = test: Cytotoxicity against human NCI-H23 cells assessed as cellular growth at 10 uM by SRB assay
SN12C = test: Cytotoxicity against human SN12C cells assessed as cellular growth at 10 uM by SRB assay
CAKI-1 = test: Cytotoxicity against human Caki1 cells assessed as cellular growth at 10 uM by SRB assay
MDA-MB-468 = test: Cytotoxicity against human MDA-MB-468 cells assessed as cellular growth at 10 uM by SRB assay
Malme-3M = test: Cytotoxicity against human MALME-3M cells assessed as cellular growth at 10 uM by SRB assay

Work on `COc1ccc2nc(NC(=O)c3ccc(F)cc3)sc2c1` yielded an Activity (SNB-19) of 109.05%, an Activity (HCC 2998) of 87.56% and an Activity (M14) of 106.56%. The Activity (RPMI-8226) was 87.06%, the Activity (K562) was 82.42% and the Activity (HT-29) was 90.2%. It also gave an Activity (SF-295) of 54.56%, an Activity (SK-MEL-2) of 143.55% and an Activity (OVCAR-5) of 97.79%. For the same molecule, the Activity (SR) was 104.31%, the Activity (SK-MEL-5) was 89.97% and the Activity (A498) was 85.54%. For the same molecule, the Activity (A549) was 47.59%, the Activity (SF-539) was 97.47% and the Activity (HCT-15) was 85.45%. For the same molecule, the Activity (PC-3) was 88.31%, the Activity (KM12) was 93.29% and the Activity (HCT-116) was 95.31%. For the same molecule, the Activity (HOP-62) was 108.23%, the Activity (SF-268) was 106.57% and the Activity (UO-31) was 99.75%. The Activity (CCRF-CEM) was 91.13%, the Activity (SNB-75) was 109.5% and the Activity (EKVX) was 79.56%. The Activity (ACHN) was 88.79%, the Activity (RXF 393) was 110.56% and the Activity (MDA-MB-435) was 96.73%. It also gave an Activity (NCI-H322M) of 75.75%, an Activity (BT-549) of 104.05% and an Activity (SK-OV-3) of 104.34%. It also gave an Activity (SK-MEL-28) of 110.86%, an Activity (MCF7) of 70.13% and an Activity (OVCAR-3) of 101.58%. The Activity (Hs-578T) was 114.71%, the Activity (IGROV-1) was 98.94% and the Activity (786-0) was 96.69%. It also gave an Activity (DU-145) of 105.68%, an Activity (NCI-H226) of 92.48% and an Activity (HL-60(TB)) of 108.33%. It also gave an Activity (U-251) of 98.75%, an Activity (MDA-MB-231) of 116.29% and an Activity (T47D) of 76.48%. For the same molecule, the Activity (MOLT-4) was 87.45%, the Activity (OVCAR-8) was 94.61% and the Activity (TK-10) was 98.88%. It also gave an Activity (COLO 205) of 115.29%, an Activity (NCI-H460) of 19.56% and an Activity (UACC-62) of 88.71%. It also gave an Activity (UACC-257) of 97.45%, an Activity [1] of 89.25% and an Activity (NCI-H522) of 75.43%. The Activity (LOX IMVI) was 102.03%, the Activity (SW-620) was 101.19% and the Activity (NCI-H23) was 85.96%. It also gave an Activity (SN12C) of 112.11%, an Activity (CAKI-1) of 79.13% and an Activity (MDA-MB-468) of 102.55%. The Activity (Malme-3M) was 92.36%.
With `Clc1ccc(-c2nc(-c3cccs3)no2)c(Cl)c1` the Activity (SNB-19) was 104.48%, the Activity (HCC 2998) was 66.03% and the Activity (M14) was 100.46%. For the same molecule, the Activity (RPMI-8226) was 86.03%, the Activity (K562) was 96.15% and the Activity (SF-295) was 107.44%. It also gave an Activity (SK-MEL-2) of 122.72%, an Activity (SK-MEL-5) of 83.92% and an Activity (A498) of 110.86%. For the same molecule, the Activity (A549) was 91.44%, the Activity (SF-539) was 107.53% and the Activity (HCT-15) was 73.54%. It also gave an Activity (PC-3) of 83.22%, an Activity (KM12) of 99.27% and an Activity (HCT-116) of 94.56%. It also gave an Activity (HOP-62) of 84.92%, an Activity (SF-268) of 99.25% and an Activity (UO-31) of 70.88%. It also gave an Activity (CCRF-CEM) of 85.99%, an Activity (SNB-75) of 63.47% and an Activity (EKVX) of 72.63%. For the same molecule, the Activity (ACHN) was 99.79%, the Activity (RXF 393) was 107.35% and the Activity (MDA-MB-435) was 110.83%. The Activity (NCI-H322M) was 120.06%, the Activity (BT-549) was 83.02% and the Activity (SK-OV-3) was 93.87%. The Activity (SK-MEL-28) was 103.74%, the Activity (MCF7) was 29.22% and the Activity (OVCAR-3) was 99.18%. The Activity (Hs-578T) was 96.13%, the Activity (IGROV-1) was 66.78% and the Activity (786-0) was 97.42%. The Activity (DU-145) was 99.3%, the Activity (NCI-H226) was 88.68% and the Activity (U-251) was 90.09%. The Activity (T47D) was 51.7%, the Activity (OVCAR-8) was 97.12% and the Activity (TK-10) was 71.42%. It also gave an Activity (COLO 205) of 106.21%, an Activity (NCI-H460) of 92.07% and an Activity (UACC-62) of 88.98%. The Activity (UACC-257) was 76.15%, the Activity [1] was 102.9% and the Activity (NCI-H522) was 91.42%. The Activity (LOX IMVI) was 103.49%, the Activity (SW-620) was 88.07% and the Activity (NCI-H23) was 92.64%. For the same molecule, the Activity (SN12C) was 100.86%, the Activity (CAKI-1) was 81.96% and the Activity (MDA-MB-468) was 8.37%. The Activity (Malme-3M) was 102.62%.
